From ChEMBL document CHEMBL3039007, “Structure-based identification of OATP1B1/3 inhibitors” (Mol Pharmacol, 2013)
Structures can show the parent of a compound that is named as a salt. Residues, ends and D or L forms follow the SMILES beside them. *: point of attachment. Tfa = O=C(C(F)(F)F)*

What was measured:
[1] = target: T1, Solute carrier organic anion transporter family member 1B3 (Homo sapiens, UniProt Q9NPD5); conditions: chinese hamster, cho, 10 µM
T1 sequence (Q9NPD5 whole entry): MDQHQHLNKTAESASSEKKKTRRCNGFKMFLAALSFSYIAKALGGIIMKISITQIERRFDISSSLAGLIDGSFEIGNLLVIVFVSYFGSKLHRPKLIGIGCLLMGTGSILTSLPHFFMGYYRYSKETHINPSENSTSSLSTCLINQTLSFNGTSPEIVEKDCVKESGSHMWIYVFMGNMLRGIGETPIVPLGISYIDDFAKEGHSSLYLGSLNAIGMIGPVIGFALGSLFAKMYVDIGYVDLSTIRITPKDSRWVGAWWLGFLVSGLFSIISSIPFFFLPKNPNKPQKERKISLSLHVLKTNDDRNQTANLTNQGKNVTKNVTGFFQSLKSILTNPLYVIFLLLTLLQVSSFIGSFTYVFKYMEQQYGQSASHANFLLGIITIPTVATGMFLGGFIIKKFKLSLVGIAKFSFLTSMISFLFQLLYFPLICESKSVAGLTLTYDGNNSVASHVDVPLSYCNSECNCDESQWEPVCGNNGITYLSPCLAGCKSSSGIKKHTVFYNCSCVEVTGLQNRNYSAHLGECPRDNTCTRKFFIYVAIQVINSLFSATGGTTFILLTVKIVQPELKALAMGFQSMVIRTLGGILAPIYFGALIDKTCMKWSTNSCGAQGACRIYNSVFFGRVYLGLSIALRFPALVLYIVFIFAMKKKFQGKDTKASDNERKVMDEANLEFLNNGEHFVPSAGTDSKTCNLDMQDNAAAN

[2] = target: T2, Solute carrier organic anion transporter family member 1B1 (Homo sapiens, UniProt Q9Y6L6); conditions: chinese hamster, cho, 10 µM
T2 sequence (Q9Y6L6 whole entry): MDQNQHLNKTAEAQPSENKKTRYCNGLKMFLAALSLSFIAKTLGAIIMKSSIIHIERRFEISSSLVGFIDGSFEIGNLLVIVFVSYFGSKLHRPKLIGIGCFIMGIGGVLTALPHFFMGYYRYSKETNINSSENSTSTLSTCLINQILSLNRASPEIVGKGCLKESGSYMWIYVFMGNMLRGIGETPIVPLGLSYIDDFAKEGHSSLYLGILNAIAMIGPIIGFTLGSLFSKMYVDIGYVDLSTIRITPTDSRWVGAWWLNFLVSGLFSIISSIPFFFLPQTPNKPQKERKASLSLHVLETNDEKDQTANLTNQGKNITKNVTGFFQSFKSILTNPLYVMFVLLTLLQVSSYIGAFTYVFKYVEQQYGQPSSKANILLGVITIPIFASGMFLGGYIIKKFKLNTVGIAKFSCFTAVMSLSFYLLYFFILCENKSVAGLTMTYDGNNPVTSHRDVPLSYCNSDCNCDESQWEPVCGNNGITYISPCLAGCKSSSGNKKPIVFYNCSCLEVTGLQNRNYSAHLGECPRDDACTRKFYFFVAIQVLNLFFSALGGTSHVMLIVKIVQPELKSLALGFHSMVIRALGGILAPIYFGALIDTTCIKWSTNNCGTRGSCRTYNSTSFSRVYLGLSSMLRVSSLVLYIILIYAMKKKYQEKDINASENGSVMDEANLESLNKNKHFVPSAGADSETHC

residual activity [1] [%] | residual activity [2] [%] | Compound
96.81 | 108 | CC(C)[C@H](NC(=O)[C@H](Cc1ccc(O)cc1)NC(=O)[C@@H](NC(=O)C(F)(F)F)C(C)C)C(=O)O [Tfa-VAL-TYR-VAL-OH] (Tfa-Val-Tyr-Val-OH)
137.7 | 118.6 | COC1=C(OC)C(=O)C(C/C=C(\C)CC/C=C(\C)CC/C=C(\C)CC/C=C(\C)CC/C=C(\C)CC/C=C(\C)CC/C=C(\C)CC/C=C(\C)CC/C=C(\C)CCC=C(C)C)=C(C)C1=O [UBIDECARENONE]
76.49 | 26.71 | O=c1ccc2ccc(O)cc2o1 [UMBELLIFERONE]
105.9 | 87.46 | NC(N)=O [UREA]
105.2 | 116 | COc1ccc(C(=O)CC(=O)O)c2c1C=CC(C)(C)O2 [URSINOIC ACID]
107.5 | 121.5 | C[C@H]1[C@H](C)CC[C@]2(CO)CC[C@]3(C)C(=CC[C@@H]4[C@@]5(C)CC[C@H](O)C(C)(C)[C@@H]5CC[C@]43C)[C@H]12 [UVAOL]
80.91 | 68.57 | CC(C)[C@H](N)C(=O)OCCOCn1cnc2c(=O)[nH]c(N)nc21.Cl [VALACYCLOVIR HYDROCHLORIDE]
94.41 | 120.4 | Cc1onc(-c2ccccc2)c1-c1ccc(S(N)(=O)=O)cc1 [VALDECOXIB]
92.91 | 78.97 | CCCCC(=O)Oc1ccccc1C(=O)O [VALERYL SALYCILATE]
102.8 | 100.2 | CC(C)[C@H](N)C(=O)N[C@@H](Cc1c[nH]c2ccccc12)C(=O)O [VALYLTRYPTOPHAN] (H-Val-Trp-OH)
94.41 | 78.69 | C=CC(N)CCC(=O)O (configuration not stated) [VIGABATRIN]
115.3 | 97.38 | CC[C@]12CCCN3CCc4c(n(c5ccccc45)C(=O)C1)[C@@H]32 [VINBURNINE]
88.88 | 72.87 | CC[C@]12CCCN3CCc4c(n(c5ccccc45)[C@@](O)(C(=O)OC)C1)[C@@H]32 [VINCAMINE]

Compound | residual activity [1] [%] | residual activity [2] [%]
C[C@H](CCC(=O)O)[C@H]1CC[C@H]2[C@@H]3CC[C@@H]4CCCC[C@]4(C)[C@H]3CC[C@]12C [URSOCHOLANIC ACID] | 102.7 | 98.45
C[C@H](CCC(=O)O)[C@H]1CC[C@H]2[C@@H]3[C@@H](O)C[C@@H]4C[C@H](O)CC[C@]4(C)[C@H]3CC[C@]12C [URSODIOL] | 149.7 | 70.93
CCCC(CCC)C(=O)[O-].[Na+] [VALPROATE SODIUM] | 125.1 | 90.61
CN[C@H](CC(C)C)C(=O)N[C@H]1C(=O)N[C@@H](CC(N)=O)C(=O)N[C@H]2C(=O)N[C@H]3C(=O)N[C@H](C(=O)N[C@H](C(=O)O)c4cc(O)cc(O)c4-c4cc3ccc4O)[C@H](O)c3ccc(c(Cl)c3)Oc3cc2cc(c3O[C@@H]2O[C@H](CO)[C@@H](O)[C@H](O)[C@H]2O[C@H]2C[C@](C)(N)[C@H](O)[C@H](C)O2)Oc2ccc(cc2Cl)[C@H]1O.Cl [VANCOMYCIN HYDROCHLORIDE] | 103.2 | 99.99
Nc1c2c(nc3ccccc13)CCCC2O.O=C(O)/C=C\C(=O)O (configuration not stated) [VELNACRINE MALEATE] | 96.75 | 103.3
COc1ccc(C(=O)O)cc1OC [VERATRIC ACID] | 106.9 | 111.3
COc1ccc(C(=O)O[C@H]2CC[C@@]3(C)[C@@H]4CC[C@H]5[C@]6(O)C[C@H](O)[C@@]7(O)[C@@H](CN8C[C@@H](C)CC[C@H]8[C@@]7(C)O)[C@]6(O)C[C@@]53O[C@]24O)cc1OC [VERATRIDINE] | 133.7 | 82.28
Cl.OC1CCCCC1N1CCC(c2ccccc2)CC1 (configuration not stated) [VESAMICOL HYDROCHLORIDE] | 101.2 | 64.34
